# Test results from ChEMBL document CHEMBL3351833, “Synthesis and Biological Evaluation of Pyrazolo[1,5-a]pyrimidine Compounds as Potent and Selective Pim-1 Inhibitors” (ACS Med Chem Lett, 2015).
# pIC50: −log10 of the molar value.
# Key:
# [1] = molecular target: Serine/threonine-protein kinase pim-1 (Homo sapiens, UniProt P11309); experiment: Inhibition of Pim1 (unknown origin) using luciferase-luciferin based ATP detection reagent by Kinase-Glo assay; details: read-out: IC50
# [2] = molecular target: Serine/threonine-protein kinase pim-2 (Homo sapiens, UniProt Q9P1W9); experiment: Inhibition of Pim2 (unknown origin) using luciferase-luciferin based ATP detection reagent by Kinase-Glo assay; details: read-out: IC50
# [3] = molecular target: T1, Receptor-type tyrosine-protein kinase FLT3 (Homo sapiens, UniProt P36888); experiment: Inhibition of human Flt3 (unknown origin)
# T1 sequence (P36888 whole entry): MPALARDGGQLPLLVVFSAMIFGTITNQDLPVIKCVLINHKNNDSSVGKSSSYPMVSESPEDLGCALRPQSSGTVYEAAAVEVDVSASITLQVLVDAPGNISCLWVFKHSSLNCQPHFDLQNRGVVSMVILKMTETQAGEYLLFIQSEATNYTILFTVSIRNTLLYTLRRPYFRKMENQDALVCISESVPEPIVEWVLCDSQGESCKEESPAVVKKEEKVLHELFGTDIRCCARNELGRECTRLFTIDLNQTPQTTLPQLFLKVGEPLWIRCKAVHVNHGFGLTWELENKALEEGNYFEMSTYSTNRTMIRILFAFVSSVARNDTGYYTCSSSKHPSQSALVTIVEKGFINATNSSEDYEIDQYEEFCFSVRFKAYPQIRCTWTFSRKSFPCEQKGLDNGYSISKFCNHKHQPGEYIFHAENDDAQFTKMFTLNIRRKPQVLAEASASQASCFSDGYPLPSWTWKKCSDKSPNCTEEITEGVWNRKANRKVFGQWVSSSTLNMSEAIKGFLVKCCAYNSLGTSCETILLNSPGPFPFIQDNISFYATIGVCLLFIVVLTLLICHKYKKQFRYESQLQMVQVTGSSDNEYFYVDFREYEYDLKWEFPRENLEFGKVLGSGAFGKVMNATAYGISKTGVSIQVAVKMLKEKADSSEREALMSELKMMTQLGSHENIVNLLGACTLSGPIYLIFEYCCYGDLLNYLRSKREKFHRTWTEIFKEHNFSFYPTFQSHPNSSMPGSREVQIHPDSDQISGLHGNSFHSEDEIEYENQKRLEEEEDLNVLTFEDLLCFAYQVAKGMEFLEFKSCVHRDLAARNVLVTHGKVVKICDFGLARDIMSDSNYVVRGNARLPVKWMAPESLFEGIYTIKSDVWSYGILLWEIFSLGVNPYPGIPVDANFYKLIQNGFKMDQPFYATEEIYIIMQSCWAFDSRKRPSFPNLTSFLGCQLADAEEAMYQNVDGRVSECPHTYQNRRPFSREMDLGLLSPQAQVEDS
# [4] = molecular target: Voltage-gated inwardly rectifying potassium channel KCNH2 (Homo sapiens, UniProt Q12809); experiment: Inhibition of human ERG expressed in CHO cells by automated patch clamp method; type: cell-based
# Voltage-gated inwardly rectifying potassium channel KCNH2, sequence (Q12809 whole entry): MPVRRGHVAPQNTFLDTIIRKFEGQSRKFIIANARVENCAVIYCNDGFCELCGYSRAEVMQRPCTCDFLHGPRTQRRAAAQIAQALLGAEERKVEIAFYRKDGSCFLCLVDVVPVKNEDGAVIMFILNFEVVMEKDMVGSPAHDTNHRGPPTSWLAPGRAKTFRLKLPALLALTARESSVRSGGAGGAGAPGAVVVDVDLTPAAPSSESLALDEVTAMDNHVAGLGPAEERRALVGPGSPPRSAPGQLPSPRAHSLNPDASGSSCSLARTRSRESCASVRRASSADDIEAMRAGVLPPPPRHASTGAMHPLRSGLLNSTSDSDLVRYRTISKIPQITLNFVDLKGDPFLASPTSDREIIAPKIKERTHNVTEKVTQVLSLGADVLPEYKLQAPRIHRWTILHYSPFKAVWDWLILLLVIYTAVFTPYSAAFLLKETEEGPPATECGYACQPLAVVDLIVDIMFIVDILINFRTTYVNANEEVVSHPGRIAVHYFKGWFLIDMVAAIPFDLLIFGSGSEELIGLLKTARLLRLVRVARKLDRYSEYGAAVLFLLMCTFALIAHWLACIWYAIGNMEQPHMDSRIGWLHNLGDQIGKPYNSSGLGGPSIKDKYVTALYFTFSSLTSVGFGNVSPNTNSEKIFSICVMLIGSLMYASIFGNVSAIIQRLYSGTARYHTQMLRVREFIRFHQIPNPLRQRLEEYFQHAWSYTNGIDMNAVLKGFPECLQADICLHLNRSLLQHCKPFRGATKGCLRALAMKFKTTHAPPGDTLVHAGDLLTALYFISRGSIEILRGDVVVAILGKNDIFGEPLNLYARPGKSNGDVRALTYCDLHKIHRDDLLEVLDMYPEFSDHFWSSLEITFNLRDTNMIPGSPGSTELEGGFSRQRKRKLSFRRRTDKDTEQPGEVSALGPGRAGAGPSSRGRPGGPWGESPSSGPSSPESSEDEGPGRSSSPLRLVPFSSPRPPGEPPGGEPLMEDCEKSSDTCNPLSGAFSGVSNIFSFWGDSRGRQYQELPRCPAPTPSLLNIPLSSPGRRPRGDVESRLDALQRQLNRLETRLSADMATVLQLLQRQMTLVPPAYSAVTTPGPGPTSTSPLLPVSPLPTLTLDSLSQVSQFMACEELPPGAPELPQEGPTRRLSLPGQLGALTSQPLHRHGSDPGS
# Serine/threonine-protein kinase pim-2, sequence (Q9P1W9 whole entry): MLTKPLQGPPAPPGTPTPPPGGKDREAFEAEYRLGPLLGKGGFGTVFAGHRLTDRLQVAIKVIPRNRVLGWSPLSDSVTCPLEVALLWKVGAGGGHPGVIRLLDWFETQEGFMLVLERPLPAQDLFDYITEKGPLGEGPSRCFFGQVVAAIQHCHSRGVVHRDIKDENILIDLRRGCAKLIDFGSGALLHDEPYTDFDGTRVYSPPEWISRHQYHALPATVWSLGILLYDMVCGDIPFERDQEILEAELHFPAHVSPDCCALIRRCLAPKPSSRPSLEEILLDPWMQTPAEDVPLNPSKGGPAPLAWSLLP
# Serine/threonine-protein kinase pim-1, sequence (P11309 whole entry): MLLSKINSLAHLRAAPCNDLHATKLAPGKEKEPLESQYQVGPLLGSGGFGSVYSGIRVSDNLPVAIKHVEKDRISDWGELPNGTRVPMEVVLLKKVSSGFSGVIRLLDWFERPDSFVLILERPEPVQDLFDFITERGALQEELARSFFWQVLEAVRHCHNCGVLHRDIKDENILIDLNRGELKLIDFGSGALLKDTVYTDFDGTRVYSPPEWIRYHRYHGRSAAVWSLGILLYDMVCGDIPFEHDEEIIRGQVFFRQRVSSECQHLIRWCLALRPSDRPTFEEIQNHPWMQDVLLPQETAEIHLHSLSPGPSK
Compound,pIC50 [2],also measured
O=S1(=O)CCC(CNc2ccn3ncc(-c4cccc(Cl)c4)c3n2)CC1,5.68,–
C[C@]1(O)CC[C@H](Nc2ccn3ncc(-c4cccc(Cl)c4)c3n2)CC1,5.90,–
O=S1(=O)CCC(CNc2ccn3ncc(-c4cccc(OC(F)(F)F)c4)c3n2)CC1,5.09,–
Clc1cccc(-c2cnn3ccc(NCC4CCOCC4)nc23)c1,5.79,–
N[C@H]1CCCN(c2ccn3ncc(-c4cccc(Cl)c4)c3n2)C1,5.70,–

# Second part, led by results:
pIC50 [2],Compound,also measured
5.71,FC(F)(F)c1cccc(-c2cnn3ccc(NCC4CCOCC4)nc23)c1,pIC50 [1]: 6.83
5.99,CO[C@H]1CC[C@H](Nc2ccn3ncc(-c4cccc(Cl)c4)c3n2)CC1,–
6.30,O[C@H]1CC[C@H](Nc2ccn3ncc(-c4cccc(Cl)c4)c3n2)CC1,–
5.69,C[C@]1(O)CC[C@H](Nc2ccn3ncc(-c4cccc(OC(F)(F)F)c4)c3n2)CC1,–
5.83,CN1CCC(CNc2ccn3ncc(-c4cccc(OC(F)(F)F)c4)c3n2)CC1,–
5.44,CO[C@H]1CC[C@H](Nc2ccn3ncc(-c4cccc(OC(F)(F)F)c4)c3n2)CC1,–
6.28,CC(C)(O)[C@H]1CC[C@H](Nc2ccn3ncc(-c4cccc(C(F)(F)F)c4)c3n2)CC1,pIC50 [3]: 6.57; pIC50 [4]: < 4.52
5.39,CC(C)(O)[C@H]1CC[C@H](Nc2ccn3ncc(-c4cccc(OC(F)(F)F)c4)c3n2)CC1,–
